From patent US12344623B2, “Thiazolopyridine derivatives as adenosine receptor antagonists” (Merck Patent GmbH, priority 2019, dated 2025)
pIC50: −log10 of the molar value.

Key:
Assay type in all cases: cell-based
mouse Pan T cells [1] = experiment: mTcell assay, IL-2, rescue of cytokine secretion, agonist NECA; details: 24 h
Text: (§1) Adenosine (Ado) in tumor microenvironment can inhibit T cell activity by signaling through A2A receptors and suppress cytokine secretion by T cells. […] Potential A2A antagonists or A2A/A2B dual antagonists can rescue T cells from this inhibition. Herein, we describe the in vitro system we established using Pan T cells from mouse spleens to screen potential A2A antagonists or A2A/A2B dual antagonists for their activity. The method described involves the use of CD3/CD28 pre-coated beads to stimulate Pan T cells purified from mouse splenocytes, combined with the addition of A2A agonist along with potential A2A or A2A/A2B dual antagonists to evaluate potentiation of T cell cytokine production.
Briefly, mouse Pan T cells are purified from spleens of BALB/c mice using Pan T cell isolation kit Mouse II (MACS Miltenyi biotech Cat # Order no. 130-095-130) according to manufacturer's protocol. The purified T cells are seeded in Nunc™ 96-Well Polystyrene Round Bottom Microwell Plates in RPMI medium with 10% heat inactivated fetal bovine serum. The cells are rested at 37° C. for 1 h before activating with CD3/CD28 pre-coated beads (Dynabeads™ Mouse T-Activator CD3/CD28; Cat #11456D). After 30 min the cells are treated with varying doses of test antagonist(s). […] After 24 h incubation IL-2 levels in the supernatants are measured by ELISAs according to manufacturer's protocol (R&D systems Cat #DY402 (IL-2)). Once the concentrations are calculated, the difference of cytokine concentration of DMSO control and agonist alone control is calculated and the percentage of rescue by each concentration of antagonist is calculated by using Microsoft Excel. These percentages of cytokine rescue in a dose dependent manner of antagonist is plotted in GraphPad Prism software and IC50 is calculated.

human A2B receptor = molecular target: T1, human A2B receptor (Homo sapiens, UniProt P29275); experiment: Functional A2B receptor activity, recombinant HEK293 cells, cAMP (HTRF), agonist NECA; details: read-out: Functional A2B receptor activity, HEK293, cAMP, IC50
T1 construct: expressed in transfected cells; host or cells: HEK293
T1 sequence (P29275 1-332): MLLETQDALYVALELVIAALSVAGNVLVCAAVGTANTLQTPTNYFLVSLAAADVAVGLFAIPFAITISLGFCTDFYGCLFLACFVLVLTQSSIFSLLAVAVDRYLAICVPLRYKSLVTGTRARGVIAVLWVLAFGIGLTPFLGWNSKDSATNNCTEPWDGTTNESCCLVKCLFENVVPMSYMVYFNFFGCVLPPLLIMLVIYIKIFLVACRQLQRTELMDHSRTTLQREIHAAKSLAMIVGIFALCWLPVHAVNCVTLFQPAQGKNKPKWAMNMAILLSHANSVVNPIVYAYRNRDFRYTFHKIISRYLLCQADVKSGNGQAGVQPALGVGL
How it was run: (§2)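 Cells were seeded, then treated with forskolin, test compound and agonist. After a 30 min incubation, HTRF detection reagents were added and intracellular cAMP was read. Values were scaled between an inhibitor control and DMSO before fitting.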

human A2A receptor [2] = molecular target: T2, human A2A receptor (Homo sapiens, UniProt P29274); experiment: Human T cells, endogenous A2A receptor, cAMP, agonist NECA; details: read-out: hTcell data, cAMP, IC50
How it was run: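 Pan T cells isolated from fresh human blood PBMC, endogenously expressing Gs-coupled A2A, treated with compounds. Cellular cAMP measured by HTRF after 1 h; data normalized to inhibitor control and DMSO neutral control, then curve-fitted.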

human A2A receptor [3] = molecular target: T2, human A2A receptor; experiment: Functional A2A receptor activity, recombinant HEK293 cells, cAMP (HTRF), agonist NECA; design: expressed in transfected cells; host or cells: HEK293; details: read-out: Functional A2A receptor activity, HEK293, cAMP, IC50
How it was run: as §2

human A3 receptor = molecular target: T3, human A3 receptor (Homo sapiens, UniProt P0DMS8); experiment: Functional A3 receptor activity, recombinant CHO cells, cAMP (HTRF), forskolin, agonist IB-MECA; details: recombinant CHO cells, forskolin, agonist IB-MECA; read-out: Functional A3 receptor activity, CHO, cAMP, IC50
T3 construct: expressed in transfected cells; host or cells: CHO
T3 sequence (P0DMS8 1-318): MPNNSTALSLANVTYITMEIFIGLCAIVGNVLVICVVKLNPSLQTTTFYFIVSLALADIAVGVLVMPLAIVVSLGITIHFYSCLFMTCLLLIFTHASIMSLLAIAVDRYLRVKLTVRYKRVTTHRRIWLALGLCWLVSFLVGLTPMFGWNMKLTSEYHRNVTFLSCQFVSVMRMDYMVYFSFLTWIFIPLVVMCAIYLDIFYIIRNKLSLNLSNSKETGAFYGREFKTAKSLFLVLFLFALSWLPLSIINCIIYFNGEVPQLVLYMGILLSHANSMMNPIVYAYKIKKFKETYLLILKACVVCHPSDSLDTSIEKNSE
How it was run: (§3)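 Recombinant CHO lines carrying either receptor receive forskolin, compound and the matching agonist, CPA or IB-MECA. After 30 min, HTRF reagents are added and cAMP is quantified. Values are normalized to inhibitor and neutral DMSO controls, then fitted.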

mouse Pan T cells [4] = experiment: mTcell assay, cAMP, agonist NECA
Text: as §1
Pan T-cells are isolated from black 6 mice by manual dissociation and purified using a Miltenyi Pan T-cell isolation kit. The isolated T-cells are activated in 96 well plates for 48 hours using anti-CD3/CD28 beads in T-cell proliferation media.
After 48 hours, the T-cells are pooled, counted and suspended in serum free media containing 0.1% BSA. The cells are plated at 50,000 cells per well in 10 ul of media and incubated for 2 hours at 37° C. Test compounds are dispensed into the wells at a 10-point dose response, starting at a concentration of 10 uM. […] The plates are incubated for 30 minutes at 37° C. and assayed for cAMP levels using the Cisbio cAMP Dynamic2 reagent kit by adding 10 ul of the kit reagents to each well. The plates are incubated for 1 hour at room temperature and the HTRF signal is read on an Envision plate reader. The raw data is analyzed in Genedata Screener and the resulting data is loaded into the database.

human A1 receptor = molecular target: T4, human A1 receptor (Homo sapiens, UniProt P30542); experiment: Functional A1 receptor activity, recombinant CHO cells, cAMP (HTRF), forskolin, agonist CPA; details: recombinant CHO cells, forskolin, agonist CPA; read-out: Functional A1 receptor activity, CHO, cAMP, IC50
T4 construct: expressed in transfected cells; host or cells: CHO
T4 sequence (P30542 1-326): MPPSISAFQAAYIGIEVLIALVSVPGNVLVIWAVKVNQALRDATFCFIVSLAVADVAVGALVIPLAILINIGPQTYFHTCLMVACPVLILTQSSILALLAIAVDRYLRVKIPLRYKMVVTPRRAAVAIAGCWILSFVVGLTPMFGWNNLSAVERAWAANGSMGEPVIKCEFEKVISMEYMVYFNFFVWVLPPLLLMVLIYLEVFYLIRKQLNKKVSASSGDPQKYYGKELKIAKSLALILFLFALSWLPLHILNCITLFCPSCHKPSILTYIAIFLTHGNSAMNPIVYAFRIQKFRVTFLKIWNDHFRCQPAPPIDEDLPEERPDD
How it was run: as §3

human T cells = experiment: hTcell data, IL-2 (human T cells, IL-2 readout; method not given); details: compounds of the present invention

T2 sequence (P29274 whole entry): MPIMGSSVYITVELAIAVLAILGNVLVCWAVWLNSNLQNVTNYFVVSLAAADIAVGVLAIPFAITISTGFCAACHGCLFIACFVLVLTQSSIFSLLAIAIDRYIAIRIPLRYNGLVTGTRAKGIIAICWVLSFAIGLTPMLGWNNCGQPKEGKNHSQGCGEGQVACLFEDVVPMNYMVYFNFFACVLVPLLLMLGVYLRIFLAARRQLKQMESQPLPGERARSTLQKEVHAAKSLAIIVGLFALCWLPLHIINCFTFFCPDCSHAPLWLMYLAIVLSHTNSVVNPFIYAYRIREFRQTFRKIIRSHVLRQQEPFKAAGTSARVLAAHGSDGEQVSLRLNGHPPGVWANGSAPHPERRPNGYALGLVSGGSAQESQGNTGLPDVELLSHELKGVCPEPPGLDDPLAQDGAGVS

SMILES	pIC50 (mouse Pan T cells [1]; Mus musculus, T-cell)	pIC50 (human A2B receptor)	pIC50 (human A2A receptor [2])	pIC50 (human A2A receptor [3])	pIC50 (human A3 receptor)	pIC50 (mouse Pan T cells [4]; Mus musculus, T-cell)	pIC50 (human A1 receptor)	pIC50 (human T cells)	pIC50 (mouse Pan T cells [4]; mouse Pan T cells, agonist NECA 1 uM)	pIC50 (human T cells; T-cell)	pIC50 (mouse Pan T cells [1]; mouse Pan T cells, CD3/CD28 activated, NECA 1 μM, IL-2 rescue)
COc1cccc(-c2cnc(OC)c3nc(NC(=O)N4CCC5(CCOCC5)C4)sc23)c1 [Compound 54, 8-Oxa-2-aza-spiro[4.5]decane-2-carboxylic acid [4-methoxy-7-(3-methoxy-phenyl)-thiazolo[4,5-c]pyridin-2-yl]-amide]	> 7.00	> 8.00	> 8.00	> 8.00	< 6.00	> 8.00	< 6.00				
COc1ncc(C2=CCOCC2)c2sc(NC(=O)N3CC[C@]4(CCCOC4)C3)nc12 [Compound 24, (R)-7-Oxa-2-aza-spiro[4.5]decane-2-carboxylic acid [7-(3,6-dihydro-2H-pyran-4-yl)-4-methoxy-thiazolo[4,5-c]pyridin-2-yl]-amide]		> 7.00	> 8.00	> 8.00	< 6.00		> 6.00	> 8.00	> 7.00		
COc1nc(F)c(C2CCOCC2)c2sc(NC(=O)N3CCC4(CCOCC4)C3)nc12 [Compound 26, 8-Oxa-2-aza-spiro[4.5]decane-2-carboxylic acid [6-fluoro-4-methoxy-7-(tetrahydro-pyran-4-yl)-thiazolo[4,5-c]pyridin-2-yl]-amide]	> 8.00	> 7.00	> 8.00	> 8.00	< 6.00	> 8.00	< 6.00			> 7.00	
COc1nc(F)c(-c2ccccc2)c2sc(NC(=O)N3CC[C@]4(CCCOC4)C3)nc12 [Compound 12, (R)-7-Oxa-2-aza-spiro[4.5]decane-2-carboxylic acid (6-fluoro-4-methoxy-7-phenyl-thiazolo[4,5-c]pyridin-2-yl)-amide]	> 8.00	> 8.00	> 8.00	> 8.00	< 6.00	> 8.00	> 6.00			> 8.00	
COc1nc(F)c(C2CCOCC2)c2sc(NC(=O)c3ccc(C(=O)N(C)C)cc3)nc12 [Compound 20, N-[6-Fluoro-4-methoxy-7-(tetrahydro-pyran-4-yl)-thiazolo[4,5-c]pyridin-2-yl]-N′,N′-dimethyl-terephthalamide]	> 7.00	> 8.00	> 8.00	> 8.00	< 6.00	> 7.00	< 6.00			> 8.00	
COc1nc(F)c(C2CCOCC2)c2sc(NC(=O)N3CC[C@]4(CCOC4)C3)nc12 [Compound 38, (5S)-N-[6-fluoro-4-methoxy-7-(oxan-4-yl)-[1,3]thiazolo[4,5-c]pyridin-2-yl]-2-oxa-7-azaspiro[4.4]nonane-7-carboxamide]	> 7.00	> 8.00	> 8.00	> 8.00	< 6.00	> 8.00	< 6.00				
COc1nc(F)c(N2CCOCC2)c2sc(NC(=O)N3CC[C@@]4(CCCOC4)C3)nc12 [Compound 11, (5S)-N-[6-fluoro-4-methoxy-7-(morpholin-4-yl)-[1,3]thiazolo[4,5-c]pyridin-2-yl]-7-oxa-2-azaspiro[4.5]decane-2-carboxamide]	> 7.00	> 8.00	> 8.00	> 8.00	< 6.00		< 6.00			> 8.00	
COc1ncc(C2=CCOCC2)c2sc(NC(=O)N3CCC4(CCCOC4)C3)nc12 (stereo not drawn) [Compound 15, 7-Oxa-2-aza-spiro[4.5]decane-2-carboxylic acid [7-(3,6-dihydro-2H-pyran-4-yl)-4-methoxy-thiazolo[4,5-c]pyridin-2-yl]-amide]		> 8.00		> 8.00	< 6.00		< 6.00	> 8.00			> 7.00
COc1nc(F)c(N2CCOCC2)c2sc(NC(=O)c3ccc(-c4nnn[nH]4)cc3)nc12 [Compound 6, N-(6-Fluoro-4-methoxy-7-morpholin-4-yl-thiazolo[4,5-c]pyridin-2-yl)-4-(1H-tetrazol-5-yl)-benzamide]		> 8.00	> 7.00	> 8.00	> 6.00	> 7.00	< 6.00			> 8.00	
COc1ncc(C2=CCOCC2)c2sc(NC(=O)c3ccc(C(=O)N(C)C)cc3)nc12 [Compound 61, N4-[7-(3,6-dihydro-2H-pyran-4-yl)-4-methoxy-[1,3]thiazolo[4,5-c]pyridin-2-yl]-N1,N1-dimethylbenzene-1,4-dicarboxamide]	> 7.00	> 8.00	> 8.00	> 8.00	< 6.00		> 6.00				
COc1ncc(-c2cccs2)c2sc(NC(=O)N3CCC4(CCOCC4)C3)nc12 [Compound 47, 8-Oxa-2-aza-spiro[4.5]decane-2-carboxylic acid (4-methoxy-7-thiophen-2-yl-thiazolo[4,5-c]pyridin-2-yl)-amide]	> 7.00	> 8.00	> 8.00	> 8.00	< 6.00	> 7.00	< 6.00				
